Results published in paper PMC11574108, “4-Furanylvinylquinoline derivative as a new scaffold for the design of oxidative stress initiator and glucose transporter inhibitor drugs” (Scientific Reports, 2024).

How the values were obtained:
p21 = assay: Western blot, p21 protein level; type: cell-based, human; details: HCT 116 p53+/+, 0.5 and 1 µM, 24 and 48-h
Protocol: The cells (500,000) were seeded in 35 mm Petri dishes (Nunc) and incubated in a solution of the tested compound (0.5 µM and 1 µM) for 24 h and 48 h. The cells were then dissociated using trypsin, collected in Eppendorf tubes, and centrifuged at 2,000 rpm. Next, cell pellets were resuspended in complete RIPA buffer containing a Halt Protease Inhibitor Cocktail and Halt Phosphatase Inhibitor Cocktail along with 0.5 M EDTA (all reagents from Thermo Fisher Scientific) and lysed on ice for 20 min. Afterward, the lysates were sonicated and centrifuged at 10,000 rpm for 10 min at 4 °C. The obtained supernatants were collected for further analysis. The protein concentration was determined using a Micro BCA™ Protein Assay Kit (Thermo Fisher Scientific) according to the manufacturer’s procedure. Equal amounts of proteins (16 µg) were electrophoresed on SDS-Page gels and transferred onto nitrocellulose membranes. Novex Sharp Pre-Stained Protein Standard (Thermo Fisher Scientific) was used as a colored molecular weight marker. […]
The overexpression of p21 also causes cell cycle inhibition via its binding to the […]. […] The cell cycle in the U-251 cell line was inhibited precisely in the S-phase, and it is, therefore, likely that the p21 protein expression was not detected in the glioma cells tested (data not shown).

GLUT-1 = assay: qRT-PCR, GLUT-1 mRNA expression; type: cell-based, human; details: HCT 116 p53-/-, 24 and 48 h
Protocol: The cells were seeded in 35 mm Petri dishes at a density of 500,000 cells and incubated at 37 °C for 24 h. The total RNA was isolated after incubation with solutions of 13 (0.5 µM and 1.0 µM) for 24 h and 48 h, respectively. The isolation from the samples was carried out according to a TRIzol™ Reagent protocol (Thermo Fisher Scientific). Synthesis of cDNA was performed with 2 µg of total RNA using a GoScript™ Reverse Transcriptase kit (Promega) with Oligo(dT)23 Primers. Real-Time PCR was carried out using a CFX96 Touch™ Real-Time PCR Detection System (Bio-Rad) in 10 µL reaction volume. Each sample contained SsoAdvanced™ Universal SYBR Green Supermix (Bio Rad), a specific primer pair mix (0.5 µM each), and 1 µL of cDNA. […] The obtained data were analysed based on a comparison of the expression of the target genes and normalized to a reference gene (GAPDH) using the Livak-Schmittgen (2^−ΔΔCT) method. […]
To verify the effect of derivative 13 on glucose transporters at the mRNA level, the expression of the genes encoding the best-characterised glucose transporters in cells was quantified in real-time. In addition to GLUT-1, the effect of the tested derivative on changes in the expression of GLUT-3 and GLUT-4 was also evaluated (Fig. 8). […]

O=[N+]([O-])c1ccc(/C=C/c2ccnc3ccccc23)o1 [Compound 13]
p21 protein expression vs control (p21): more than two-fold increase | GLUT-1 mRNA level vs control (GLUT-1): significant decrease
